The source made the active and inactive calls.
Assays:
Mus musculus = species on record: Mus musculus; experiment: Antineoplastic activity against mammary adenocarcinoma M16c cell; IA=Inactive; format: functional
L1210 = experiment: Antineoplastic activity against L1210 cell line; IA=Inactive; format: functional, cell-based; conditions: Mus musculus
P388 = experiment: Antineoplastic activity against NCI P388 cell; IA=Inactive; format: functional, cell-based; conditions: Mus musculus

Measured: Activity

Cn1nnc2c(C(N)=O)cnn2c1=O
inactive: all assays above

Reference: ChEMBL document CHEMBL1123480, “Pyrazole derivatives. 5. Synthesis and antineoplastic activity of 3-(2-chloroethyl)-3,4-dihydro-4-oxopyrazolo[5,1-d]-1,2,3, 5-tetrazine-8-carboxamide and related compounds” (J Med Chem, 1986)
